According to US12371432B2, “Haloallylamine compounds and application thereof” (TransThera Sciences (Nanjing), Inc., priority 2019, dated 2025):
Counter-ions that a name gives are not always drawn. Like-named read-outs stand apart in the source and are kept apart here.

Experiments:
rhVAP-1 = biological target: T1, rhVAP-1 (Homo sapiens, UniProt Q16853); test: Inhibitory activity against rhVAP-1 enzyme (Biological Example 1); format: biochemical; settings: Table 1; benzylamine substrate, Amplex Red/HRP
T1 construct: purchased PeproTech
T1 sequence (Q16853 27-763 limits assumed): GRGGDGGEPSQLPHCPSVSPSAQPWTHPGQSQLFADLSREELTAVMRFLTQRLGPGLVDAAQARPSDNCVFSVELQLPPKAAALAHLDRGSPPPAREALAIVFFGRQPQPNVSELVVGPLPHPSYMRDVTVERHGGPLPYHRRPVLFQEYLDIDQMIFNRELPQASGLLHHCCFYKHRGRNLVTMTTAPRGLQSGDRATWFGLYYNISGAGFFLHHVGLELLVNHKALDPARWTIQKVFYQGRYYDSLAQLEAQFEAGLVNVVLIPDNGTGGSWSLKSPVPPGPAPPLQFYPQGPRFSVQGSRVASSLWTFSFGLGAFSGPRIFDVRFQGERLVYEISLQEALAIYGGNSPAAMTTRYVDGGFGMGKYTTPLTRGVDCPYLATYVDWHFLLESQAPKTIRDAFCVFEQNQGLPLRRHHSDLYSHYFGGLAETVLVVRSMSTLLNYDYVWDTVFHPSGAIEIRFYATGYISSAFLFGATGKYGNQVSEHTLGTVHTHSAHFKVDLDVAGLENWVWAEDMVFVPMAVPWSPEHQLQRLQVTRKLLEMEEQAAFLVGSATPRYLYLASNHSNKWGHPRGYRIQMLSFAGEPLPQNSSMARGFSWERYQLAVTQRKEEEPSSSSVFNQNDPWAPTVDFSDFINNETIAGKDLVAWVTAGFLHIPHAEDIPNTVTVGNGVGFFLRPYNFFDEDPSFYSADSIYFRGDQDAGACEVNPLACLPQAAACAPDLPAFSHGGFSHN
Procedure: 1. Inhibitory Activity of Compounds Against rhVAP-1 Enzyme
(1) Instrument, Consumable and Reagent
Multifunctional microplate reader (MD, FlexStation3), black unclear-bottom 96-well plate (Corning), and rhVAP-1 (PeproTech)
(2) Preparation of Concentration Gradient Compound Solutions
An appropriate amount of the compound to be tested was taken, dissolved in DMSO to 10 mM and then stored. Before the study, an appropriate amount of mother liquor of the 10 mM compound to be tested was diluted with DMSO, so that 1 mM solution was obtained. The solution was then gradiently diluted 3-fold with DMSO, 10 concentration gradients in total. PBS was then used to carry out 100-fold dilution, so that compound solutions of 10× series of concentrations were prepared.
(3) Preparation of Enzyme Solutions
An appropriate amount of protein diluent was added into rhVAP-1 powder, obtaining 1 mg/mL of mother liquor for storage. Before the study, PBS was used to carry out dilution to obtain enzyme solutions of 4× concentrations.
(4) Preparation of Substrate Mixtures of 2× Concentrations
An appropriate amount of benzylamine was weighed and dissolved with PBS to obtain 200 mM of benzylamine solution. The benzylamine solution was added with 2 mM of Amplex Red mother liquor and 500 U/mL of HRP mother liquor and diluted with PBS to obtain substrate mixtures of 2× concentrations.
10 μL compound solutions of different concentrations, 25 μL rhVAP-1 enzyme solutions of 4× concentrations and 15 μL of PBS were first added into a 96-well plate, shaken to be mixed uniformly and then incubated at 37° C. for 30 min. 50 μL substrate mixtures of 2× concentrations were then added into each well, and the microplate reader was immediately used to detect fluorescence intensity of each well with 565 nm exciting light and 590 nm emission light for 5 min each time, 25 min in total. […]
V: fluorescence change rate; Ft: fluorescence reading at time point t; F0: initial fluorescence reading; Time: duration t; Vcmpd: fluorescence change rate of tested compound; Vmax: Max hole fluorescence change rate. […]

[1] = Rat blood-brain barrier evaluation; format: in vivo; settings: SD rats, intragastric 10 mg/kg; for concentrations in brain tissues (in words): over time
Procedure: (1) Animal Administration and Sampling Method:
The study compound A1, the compound A41 and PXS-4728 were dissolved in normal saline to prepare solutions. The prepared solutions were separately administered by intragastric administration to SD rats at a dose of 10 mg/kg. […] At each time point, samples were collected from three SD rats.
On the day of the study, the animals were fixed to collect 0.15 mL of blood from the jugular vein at each set time point, and the whole blood samples were put into anticoagulation tubes containing EDTA-K2. After blood sampling was completed, heart perfusion was immediately performed for the animals, and following the heart perfusion, brain tissue samples were collected.
After the whole blood samples were centrifuged under the condition of 1,524 g for 10 min, top plasma samples were collected into sample tubes. The tissue samples were weighed, added with 20% of aqueous methanol solution at a weight-to-volume ratio of 1:5 (tissue:homogenate) and homogenized. The biological samples were stored at −40° C. to −20° C. for analysis.
(4) Sample Analysis Method:
(§1) Plasma sample: The samples to be tested were taken out of the refrigerator, naturally thawed at room temperature and then swirled for 5 min, and 20 μL of plasma sample was accurately pipetted into 1.5 mL centrifuge tubes. 100 μL of internal standard working solution (solution of 5 ng/mL verapamil and 50 ng/mL glibenclamide in acetonitrile) was added, and uniform mixing was performed. After 1 min of swirling, centrifugation was performed at 13,000 rpm for 8 min. 40 μL of supernate was accurately pipetted into a 96-well plate added with 160 μL water/well in advance. Uniform mixing was performed by swirling for 10 min, followed by LC-MS/MS assay.
as §1, with “Brain tissue” for “Plasma”, “50” for “20”, “250” for “100”, “30” for “40”, “150” for “160”
(5) Data Processing Method:
Analyst 1.6.2 from AB Sciex was used to output concentration results of tested compounds. Microsoft Excel was used to calculate parameters such as mean value, standard deviation and variation coefficient (excluding those outputted directly by Analyst 1.6.2).

[2] = rat, plasma, oral, 0.167 h, read-out: Average Plasma concentration (N=3)
[3] = rat, plasma, oral, 1 h, read-out: Average Plasma concentration (N=3)
[4] = rat, plasma, oral, 6 h, read-out: Average Plasma concentration (N=3)

Compound | IC50 (rhVAP-1) | Average Brain tissue concentration (N=3) ([1]; 0.167 h) | Mean brain tissue/plasma concentration ratio ([1]; 0.167 h) | concentrations in brain tissues (in words) [1] | concentration at 1 h ([1]; rat, brain, oral, 1 h, read-out: Average Brain tissue concentration (N=3)) | concentration at 6 h ([1]; rat, brain, oral, 6 h, read-out: Average Brain tissue concentration (N=3)) | Kp at 1 h ([1]; rat, brain/plasma, oral, 1 h, read-out: Mean brain tissue/plasma concentration ratio) | Kp at 6 h ([1]; rat, brain/plasma, oral, 6 h, read-out: Mean brain tissue/plasma concentration ratio) | concentration at 0.167 h [1, 2] | concentration at 1 h [1, 3] | concentration at 6 h [1, 4] | Average Brain tissue concentration (N=3) ([1]; 1 h) | Average Brain tissue concentration (N=3) ([1]; 6 h)
NC/C(=C\F)Cn1ncc2c1CCN(C1CC1)C2=O [Compound A2 hydrochloride, (E)-1-(2-(aminomethyl)-3-fluoroallyl)-5-cyclopropyl-1,5,6,7-tetrahydro-4H-pyrazolo[4,3-c]pyridin-4-one] | 0.073 µM |  |  |  |  |  |  |  |  |  |  |  | 
NC/C(=C\F)Cn1cc2c(n1)CCN(C1CC1)C2=O [Compound A1, (E)-2-(2-(aminomethyl)-3-fluoroallyl)-5-cyclopropyl-2,5,6,7-tetrahydro-4H-pyrazolo[4,3-c]pyridin-4-one] | 0.038 µM | BLOQ | 0← | below the limit of detection | 39.1 ng/g | 31.3 ng/g | 0.03 | 0.39 | 158 ng/mL | 1300 ng/mL | 80.7 ng/mL |  | 
NC/C(=C\F)Cn1cc2c(=O)n(C3CC3)ccc2n1 [Compound A41, (E)-2-(2-(aminomethyl)-3-fluoroallyl)-5-cyclopropyl-2,5-dihydro-4H-pyrazolo[4,3-c]pyridin-4-one] |  | BLOQ |  | below the limit of detection |  |  |  |  | 624 ng/mL | 1750 ng/mL | 39.7 ng/mL | BLOQ | BLOQ
